# Test results as given in patent US20110200626A1, “IQGAP3 EPITOPE PEPTIDES AND VACCINES CONTAINING THE SAME” (Oncotherapy Science, Inc., priority 2008, published 2011).
# Ends that are not written are not given here.
# Legend:
# peptide-pulsed T2 cells [1] = test: IFN-gamma ELISA assay on CTL lines (HLA-A*0201); type: cell-based, human; details: target cells pulsed with corresponding peptide vs without peptide
# peptide-pulsed T2 cells [2] = test: IFN-gamma ELISPOT assay on CTLs induced with HLA-A*0201 restricted peptides; type: cell-based, human; details: against peptide-pulsed target cells compared with control without peptide, listed as IQGAP3-A02-10-1424
substance,measurement,setting,value
SLTAhSLLPL (SLTAHSLLPL; not fully specified (residue 5); printed as SLTAhSLLPL) [SEQ ID NO: 141],IFN-gamma production of established CTL lines (ELISA),peptide-pulsed T2 cells [1],potent IFN-gamma production
same,IFN-gamma production of peptide-induced CTLs (ELISPOT),peptide-pulsed T2 cells [2],potent IFN-gamma production ability
